Key:
Assay type in all cases: toxicity, cell-based
Fibroblast = assay: Incucyte cell viability with human fibroblast; conditions: 10 µM, compound concentration 10 uM
U2OS = assay: Incucyte cell viability with U2OS; conditions: human, 10 µM, compound concentration 10 uM
HEK-293T = assay: Incucyte cell viability with HEK293T; conditions: human, 10 µM, compound concentration 10 uM
[1] = 0 h, replicate number 1, timepoint 0 hours
[2] = 12 h, replicate number 2, timepoint 12 hours
[3] = 18 h, replicate number 2, timepoint 18 hours
[4] = 24 h, replicate number 1, timepoint 24 hours
[5] = 6 h, replicate number 1, timepoint 6 hours
[6] = 12 h, replicate number 1, timepoint 12 hours
[7] = 18 h, replicate number 1, timepoint 18 hours
[8] = 24 h, replicate number 2, timepoint 24 hours
[9] = 6 h, replicate number 2, timepoint 6 hours
[10] = 0 h, replicate number 2, timepoint 0 hours
Also: filed as whole numbers so only -1 and 0 and 1 occur.

Compound | Growth Rate (Fibroblast; [1]) | Growth Rate (Fibroblast; [2]) | Growth Rate (Fibroblast; [4]) | Growth Rate (U2OS; [5]) | Growth Rate (U2OS; [6]) | Growth Rate (U2OS; [2]) | Growth Rate (U2OS; [7]) | Growth Rate (U2OS; [3]) | Growth Rate (U2OS; [4]) | Growth Rate (HEK-293T; [1]) | Growth Rate (HEK-293T; [5]) | Growth Rate (HEK-293T; [9]) | Growth Rate (HEK-293T; [6]) | Growth Rate (HEK-293T; [2]) | Growth Rate (HEK-293T; [7]) | Growth Rate (HEK-293T; [4]) | Growth Rate (Fibroblast; [7]) | Growth Rate (U2OS; [1]) | Growth Rate (Fibroblast; [9]) | Growth Rate (Fibroblast; [8]) | further results
NS(=O)(=O)c1cc(NC(=O)Cc2ccccc2)ccc1Oc1cccc(Cl)c1 [BAY-1797] | 0 | 1 | 1 | 0 | 1 | 0 | 0 | 1 | 0 | 0 | 0 | 1 | 0 | 1 | 0 | 0 | – | – | – | – | Growth Rate (Fibroblast; [3]): 1; Growth Rate (U2OS; [8]): 1
CC(C)(C)c1ccc(C(=O)Nc2cn3cc(-n4ccnc4)ccc3n2)cc1.Cl.Cl | 0 | – | 1 | 1 | 1 | – | 1 | – | 1 | – | 0 | – | 0 | – | 0 | 0 | 1 | 1 | – | – | Growth Rate (Fibroblast; [6]): 1; Growth Rate (U2OS; [10]): 0; Growth Rate (HEK-293T; [10]): 1
Cn1cc(Cl)c2c(Oc3c(F)cc(Nc4cc(Cl)nc(N)n4)cc3F)ccnc21 [BAY-4900] | 0 | 1 | 1 | 1 | 1 | – | 0 | 1 | 1 | 0 | – | 0 | – | 0 | 1 | 1 | – | 1 | 0 | – | Growth Rate (Fibroblast; [3]): 1; Growth Rate (U2OS; [10]): 0; Growth Rate (HEK-293T; [3]): 0; Growth Rate (HEK-293T; [8]): 0
COc1cccc(-c2c(C)n(Cc3c(F)cccc3C(F)(F)F)c(=O)n(C[C@H](NCCCC(=O)[O-])c3ccccc3)c2=O)c1F.[Na+] [ELAGOLIX SODIUM] | 0 | 0 | – | 0 | 0 | – | 0 | 1 | 0 | 0 | 1 | – | 1 | 0 | 1 | 1 | – | – | 0 | 0 | Growth Rate (Fibroblast; [10]): 1; Growth Rate (Fibroblast; [3]): 0; Growth Rate (U2OS; [10]): 1
CCCCC#Cc1nc(NC)c2ncn([C@@H]3O[C@H](CO)[C@@H](O)[C@H]3O)c2n1 | 0 | – | 1 | 0 | 1 | 0 | 1 | – | 1 | 0 | 0 | 1 | 0 | 1 | 0 | 0 | 1 | 0 | – | – | Growth Rate (Fibroblast; [5]): 1; Growth Rate (Fibroblast; [6]): 1; Growth Rate (HEK-293T; [3]): 1; Growth Rate (HEK-293T; [8]): 1
CC[C@@H]1CN(C(=O)NCC(F)(F)F)C[C@@H]1c1cnc2cnc3[nH]ccc3n12 [UPADACITINIB] | 0 | – | 1 | 0 | 0 | 1 | 0 | – | 0 | 0 | – | – | – | – | – | – | 1 | 0 | – | – | Growth Rate (Fibroblast; [5]): 1; Growth Rate (Fibroblast; [6]): 1; Growth Rate (U2OS; [10]): 1; Growth Rate (HEK-293T; [8]): 1
Cc1cc(OCC(=O)O)cc(C)c1Cc1ccc(O)c(C(C)C)c1 [SOBETIROME] | 0 | 0 | 0 | – | 1 | – | 0 | 1 | 1 | 0 | 0 | – | 0 | – | 0 | 0 | 1 | – | 0 | 1 | Growth Rate (Fibroblast; [5]): -1; Growth Rate (U2OS; [10]): 0; Growth Rate (U2OS; [9]): 0; Growth Rate (HEK-293T; [3]): 1; Growth Rate (HEK-293T; [8]): 1
CC(C)C[C@H](NC(=O)N1CCCCCC1)C(=O)N[C@H](Cc1cn(C)c2ccccc12)C(=O)N[C@H](Cc1ccccn1)C(=O)O | 0 | 0 | 1 | – | – | 1 | 1 | – | 1 | 0 | 0 | 1 | 0 | 1 | 1 | 1 | 1 | 0 | 0 | 0 | Growth Rate (U2OS; [9]): 1
CC(C)(Cc1ccccc1)NCC(O)c1ccc(O)c(NS(C)(=O)=O)c1.Cl (configuration not stated) [ZINTEROL HYDROCHLORIDE] | – | 1 | – | 0 | 1 | – | 0 | 1 | 1 | 0 | 1 | 0 | 1 | 0 | 1 | 1 | – | – | – | 1 | Growth Rate (Fibroblast; [3]): 1; Growth Rate (HEK-293T; [3]): 0; Growth Rate (HEK-293T; [8]): 0
COc1cc(N2CCC(O)CC2)ccc1Nc1cc(Nc2ccccc2S(=O)(=O)C(C)C)c2cc[nH]c2n1 | 1 | 1 | – | 1 | 1 | – | 1 | 0 | 1 | – | 0 | – | 0 | – | 0 | 0 | – | – | 1 | 1 | Growth Rate (Fibroblast; [10]): 0; Growth Rate (U2OS; [8]): 0; Growth Rate (HEK-293T; [10]): 1
O=C(O)[C@H]1[C@H](Cn2nnc3ccccc3c2=O)CC[C@@H]1C(=O)c1ccc(OCCC2CCOCC2)cc1 [BAY-7598] | 0 | – | 1 | 1 | 1 | 0 | 0 | 1 | 1 | 0 | – | 1 | 1 | – | 1 | 1 | 1 | – | – | – | Growth Rate (Fibroblast; [5]): 1; Growth Rate (Fibroblast; [6]): 1; Growth Rate (U2OS; [10]): 0; Growth Rate (HEK-293T; [10]): 1
CCN1CCC[C@H]1CNC(=O)c1c(OC)ccc(Br)c1OC [REMOXIPRIDE] | 0 | 0 | 1 | – | 0 | 1 | 0 | 1 | 0 | 0 | 1 | – | 1 | – | 1 | 1 | 1 | – | 0 | 0 | Growth Rate (Fibroblast; [3]): 0; Growth Rate (U2OS; [9]): 1; Growth Rate (U2OS; [8]): 1
C[C@H]1C[C@H]2[C@@H]3CCC4=CC(=O)C=C[C@]4(C)[C@@]3(Cl)[C@@H](O)C[C@]2(C)[C@@]1(O)C(=O)CO [BECLOMETHASONE] | 0 | – | – | – | 1 | – | 1 | – | 1 | 0 | 1 | 0 | 1 | 0 | 1 | 1 | – | 0 | 0 | – | Growth Rate (U2OS; [9]): 0; Growth Rate (HEK-293T; [3]): 0; Growth Rate (HEK-293T; [8]): 0
Cc1cc2c(cc1C1(c3ccc(C(=O)O)cn3)CC1)C(C)(C)CCC2(C)C | 1 | – | 0 | – | 1 | – | 1 | – | 1 | 0 | 1 | – | 1 | 0 | 1 | 0 | 1 | 0 | 1 | 1 | Growth Rate (Fibroblast; [10]): 0; Growth Rate (Fibroblast; [5]): 0; Growth Rate (Fibroblast; [6]): 0; Growth Rate (HEK-293T; [3]): 0
